The assay has as its target T1, MAPK10 (JNK3) (Homo sapiens, UniProt P53779).
T1 construct: purchased Thermo Fisher Scientific (Life Technologies) SelectScreen
Briefly: SelectScreen Z'LYTE. It is filed as biochemical. The note with it: ATP 100 µM. The essentials:
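Percent values come from Thermo SelectScreen profiling of NU5455, combining activity and binding assays. CSF1R was run in Z'LYTE format at Km app ATP, and CAMK1 in Adapta format with ATP listed at 10.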

T1 sequence (P53779 whole entry): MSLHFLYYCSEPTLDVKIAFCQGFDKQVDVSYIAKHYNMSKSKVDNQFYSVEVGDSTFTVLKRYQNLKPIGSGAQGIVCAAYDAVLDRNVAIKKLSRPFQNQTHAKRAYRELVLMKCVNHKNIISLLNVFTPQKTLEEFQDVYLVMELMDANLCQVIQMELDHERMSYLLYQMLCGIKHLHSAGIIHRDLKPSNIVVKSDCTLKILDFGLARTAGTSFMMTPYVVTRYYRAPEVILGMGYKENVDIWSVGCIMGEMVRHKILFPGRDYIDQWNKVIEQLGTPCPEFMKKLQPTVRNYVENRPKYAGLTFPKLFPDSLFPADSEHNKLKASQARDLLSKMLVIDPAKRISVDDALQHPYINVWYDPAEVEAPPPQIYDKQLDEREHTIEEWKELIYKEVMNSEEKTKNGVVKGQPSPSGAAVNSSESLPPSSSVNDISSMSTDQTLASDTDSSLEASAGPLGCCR

On to `CN(C(=O)CN1CCOCC1)c1ccc2sc3c(-c4cccc5c(=O)cc(N6CC7CCC(C6)O7)oc45)cccc3c2c1` [NU5455], for which 1 µM produced 9% inhibition.
